For 14 compounds, GI50 and TGI results are on record in PubChem BioAssay (NCI).

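Protocol summary: plate cells (96-well), add compound at 5 concentrations, incubate 48 h, interpolate endpoints linearly. At the GI50, growth is halved. TGI marks complete inhibition of growth.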

Test systems include BT-549 breast; NCI-H460 lung; PC-3 prostate; SF-268 CNS; SF-295 CNS; SK-MEL-2 melanoma; SNB-75 CNS; T-47D breast; UACC-257 melanoma; SF-539 CNS.
What all share (test): NCI anticancer screen, dose series, 48 h

Regarding `N#CC1=C(N)NC(=S)C(C#N)C12Nc1ccccc1S2` (configuration not stated), the GI50 with BT-549 breast was 21.7 µM; in the assay on NCI-H460 lung, 16.7 µM; with PC-3 prostate, 41 µM; with SF-268 CNS it was 14.8 µM; in the assay on SF-295 CNS, 19.5 µM; with SK-MEL-2 melanoma, 29.3 µM. Also, the results for the GI50 in the assay on SNB-75 CNS, in the assay on T-47D breast and with UACC-257 melanoma were 28.1 µM, 32.9 µM and 19.6 µM, respectively. Also, the TGI with BT-549 breast was 49.1 µM; in the assay with NCI-H460 lung, more than 100 µM; in the assay with PC-3 prostate it was more than 100 µM; in the assay on SF-268 CNS it was 42.9 µM; in the assay with SF-295 CNS, 47.8 µM; with SK-MEL-2 melanoma, 58.1 µM. Moreover, the figures for the TGI in the assay on SNB-75 CNS, with T-47D breast and with UACC-257 melanoma were 73 µM, 98.4 µM and 35.4 µM, respectively.

On to `Cc1cc(Nc2cc(N3CCN(C)CC3)nc(C#Cc3ccccc3)n2)n[nH]1`, for which the GI50 in the assay with BT-549 breast was 4.68 µM; with NCI-H460 lung it was 2.07 µM; in the assay on PC-3 prostate, 3.17 µM; in the assay with SF-268 CNS, 3.82 µM; in the assay with SF-295 CNS it was 3.39 µM; in the assay on SF-539 CNS, 2.79 µM. The GI50 in the assay on SK-MEL-2 melanoma was 1.24 µM; in the assay with SNB-75 CNS, 0.725 µM; in the assay on T-47D breast it was 4.86 µM; in the assay with UACC-257 melanoma, 3.58 µM. Also, the TGI is 17.8 µM with BT-549 breast; 13 µM in the assay on NCI-H460 lung; 25.4 µM in the assay with PC-3 prostate; 16.8 µM in the assay with SF-268 CNS; 16.8 µM with SF-295 CNS; 10.8 µM with SF-539 CNS. For the same compound, the TGI in the assay on SK-MEL-2 melanoma stood at 7.9 µM; in the assay on SNB-75 CNS it was 2.91 µM; in the assay on T-47D breast, 23 µM; with UACC-257 melanoma, 15.9 µM.

With `Cc1cc(C(=O)Nc2cc(Nc3ncccc3-c3ncnc4nc[nH]c34)ccc2F)cc(C(C)(C)C#N)c1`, the GI50 in the assay with BT-549 breast was 2.95 µM; in the assay with NCI-H460 lung, 1.98 µM; with PC-3 prostate, 7.13 µM; in the assay with SF-268 CNS it was 7.85 µM; with SF-295 CNS, 4.45 µM; in the assay on SF-539 CNS, 1.19 µM. In addition, the GI50 in the assay on SK-MEL-2 melanoma was 0.0866 µM; with SNB-75 CNS, 8.92 µM; in the assay with T-47D breast it was 2.59 µM; with UACC-257 melanoma, 0.0867 µM. Also, the TGI was more than 100 µM in the assay on BT-549 breast; more than 100 µM with NCI-H460 lung; more than 100 µM in the assay on PC-3 prostate; more than 100 µM with SF-268 CNS; more than 100 µM in the assay on SF-295 CNS; more than 63.8 µM in the assay with SF-539 CNS. Further, the TGI in the assay with SK-MEL-2 melanoma is 2.04 µM; in the assay on SNB-75 CNS it was more than 100 µM; in the assay on T-47D breast, more than 91.7 µM; with UACC-257 melanoma, more than 100 µM.

For the compound `N=C(N)SCC(=O)O`, the TGI in the assay on BT-549 breast, in the assay with NCI-H460 lung, with PC-3 prostate, with SF-268 CNS, in the assay with SF-295 CNS and with SF-539 CNS was more than 100 µM each time. Further, the TGI in the assay with SK-MEL-2 melanoma, in the assay with SNB-75 CNS, in the assay with T-47D breast and in the assay with UACC-257 melanoma was more than 100 µM throughout.

With `NC1(C(=O)O)CSSC1`, the GI50 is 4.87 µM in the assay on BT-549 breast; 3 µM with NCI-H460 lung; 21.5 µM in the assay on PC-3 prostate; 7.6 µM in the assay with SF-268 CNS; 2.35 µM in the assay on SF-295 CNS; 7.55 µM with SF-539 CNS. For the same compound, the GI50 was 2.66 µM in the assay on SK-MEL-2 melanoma, 2.91 µM with SNB-75 CNS, 32.1 µM with T-47D breast and 3.85 µM in the assay on UACC-257 melanoma. Also, the TGI with BT-549 breast was 40.2 µM; in the assay on NCI-H460 lung, more than 100 µM; in the assay with PC-3 prostate it was more than 100 µM; in the assay with SF-268 CNS it was more than 100 µM; in the assay with SF-295 CNS, 8.25 µM; with SF-539 CNS, more than 100 µM. For the same compound, the TGI was 7.95 µM in the assay on SK-MEL-2 melanoma, 21.5 µM in the assay with SNB-75 CNS, more than 100 µM in the assay with T-47D breast and 22.7 µM with UACC-257 melanoma.

With `C=C[C@@]1(C)CC(=O)[C@]2(O)[C@@]3(C)[C@@H](O)CCC(C)(C)[C@@H]3[C@H](O)[C@@H](OC(C)=O)[C@@]2(C)O1`, the TGI in the assay with BT-549 breast, in the assay on NCI-H460 lung, in the assay on PC-3 prostate, with SF-268 CNS, with SF-295 CNS and in the assay on SF-539 CNS was more than 100 µM in each case. The TGI in the assay on SK-MEL-2 melanoma, in the assay with SNB-75 CNS, in the assay with T-47D breast and in the assay with UACC-257 melanoma was more than 100 µM in each case.

For the compound `O=C(Nc1cccc(Cl)c1)c1cc(Cl)ccc1O`, the GI50 is 0.362 µM in the assay with BT-549 breast; 0.488 µM in the assay on NCI-H460 lung; 2.6 µM in the assay with PC-3 prostate; 1.21 µM in the assay with SF-268 CNS; 1.21 µM with SF-295 CNS; 0.674 µM in the assay with SF-539 CNS. The GI50 in the assay with SK-MEL-2 melanoma was 0.294 µM; in the assay with SNB-75 CNS, 0.756 µM; in the assay with T-47D breast, 1.24 µM; in the assay with UACC-257 melanoma, 0.41 µM. Besides, the TGI with BT-549 breast is 1.29 µM; in the assay with NCI-H460 lung, 6.4 µM; in the assay with PC-3 prostate, more than 25.2 µM; in the assay with SF-268 CNS, more than 40.3 µM; with SF-295 CNS it was 3.75 µM; with SF-539 CNS, 12.4 µM. Further, the TGI in the assay with SK-MEL-2 melanoma was 0.918 µM; in the assay with SNB-75 CNS, 3.86 µM; with T-47D breast, 7.38 µM; with UACC-257 melanoma, 2.87 µM.

For the compound `Cc1ccc(-c2cc(C(Cl)Cl)on2)cc1`, the GI50 with BT-549 breast was more than 100 µM; in the assay with NCI-H460 lung, 49.1 µM; in the assay on PC-3 prostate, 49.9 µM; in the assay on SF-268 CNS, more than 100 µM; in the assay with SF-295 CNS, 60 µM; with SF-539 CNS, more than 100 µM. Also, the figures for the GI50 with SK-MEL-2 melanoma, in the assay with T-47D breast and with UACC-257 melanoma were more than 100 µM, 35.3 µM and 67.7 µM, respectively. For the same compound, the TGI in the assay on BT-549 breast, with NCI-H460 lung, in the assay on PC-3 prostate, with SF-268 CNS, in the assay with SF-295 CNS and in the assay with SF-539 CNS was more than 100 µM throughout. Besides, the TGI in the assay with SK-MEL-2 melanoma, with T-47D breast and in the assay with UACC-257 melanoma was more than 100 µM each time.

`C/C(=N\O)[C@H]1CC[C@@]2(C)[C@@H]3CC[C@H]4C(C)(C)/C(=N/O)CC[C@@]45CC35CC[C@]12C` (some centres not stated): the GI50 was 2.65 µM in the assay with BT-549 breast; 5.05 µM in the assay with NCI-H460 lung; 2.33 µM in the assay on PC-3 prostate; 4.16 µM in the assay with SF-268 CNS; 3.14 µM with SF-539 CNS; 13.4 µM in the assay with SK-MEL-2 melanoma. The GI50 is 7.46 µM in the assay on SNB-75 CNS and 5.53 µM in the assay with UACC-257 melanoma. The TGI in the assay on BT-549 breast is 9.59 µM; in the assay with NCI-H460 lung it was more than 16.7 µM; in the assay on PC-3 prostate, 6.9 µM; with SF-268 CNS, 14.1 µM; in the assay on SF-539 CNS, 6.72 µM; in the assay with SK-MEL-2 melanoma it was more than 16.7 µM. For the same compound, the TGI turned out to be 14.8 µM in the assay with SNB-75 CNS and 10.1 µM in the assay with UACC-257 melanoma.

For the compound `O=c1c2ccccc2c(=O)c2c1sc1c(=O)c3ccc(O)cc3c(=O)c12`, the GI50 was 0.163 µM with BT-549 breast; 1.04 µM in the assay on SF-268 CNS; 0.178 µM in the assay on SF-295 CNS; 0.245 µM in the assay on SF-539 CNS; 1.47 µM with SK-MEL-2 melanoma; 0.183 µM in the assay on SNB-75 CNS. Also, the GI50 in the assay with T-47D breast is 2.04 µM; in the assay with UACC-257 melanoma, 0.28 µM. The TGI was 0.33 µM in the assay on BT-549 breast; 7.62 µM in the assay with SF-268 CNS; 0.361 µM in the assay on SF-295 CNS; 0.661 µM in the assay with SF-539 CNS; 3.88 µM in the assay with SK-MEL-2 melanoma; 0.4 µM in the assay on SNB-75 CNS. Also, the TGI in the assay with T-47D breast was 6.3 µM; with UACC-257 melanoma, 0.736 µM.

Consider `CNc1ccc(N=Nc2cccc3ncccc23)cc1`, for which the GI50 was 24.4 µM with BT-549 breast; 15.3 µM with PC-3 prostate; 39.3 µM in the assay on SF-268 CNS; 17.8 µM in the assay with SF-295 CNS; 63.8 µM in the assay on SF-539 CNS; more than 100 µM in the assay on SK-MEL-2 melanoma. The GI50 in the assay on SNB-75 CNS is 21.2 µM; with T-47D breast, 0.0346 µM; with UACC-257 melanoma it was more than 92.8 µM. In addition, the TGI in the assay with BT-549 breast, in the assay on PC-3 prostate, in the assay on SF-268 CNS, with SF-295 CNS, with SF-539 CNS and in the assay with SK-MEL-2 melanoma was more than 100 µM each time. Moreover, the results for the TGI in the assay with SNB-75 CNS, with T-47D breast and in the assay with UACC-257 melanoma were more than 100 µM, more than 77.1 µM and more than 100 µM, respectively.

Consider `O=C(O)C(O)c1ccc(F)cc1` (configuration not stated), for which the TGI in the assay with BT-549 breast, in the assay on NCI-H460 lung, in the assay on PC-3 prostate, in the assay with SF-268 CNS, in the assay on SF-295 CNS and with SK-MEL-2 melanoma was more than 100 µM each time. The TGI with SNB-75 CNS, in the assay on T-47D breast and in the assay on UACC-257 melanoma was more than 100 µM throughout.

As to `N#CC1=C(N)Oc2c(sc3c(Br)cccc23)C1c1ccc(F)cc1` (configuration not stated), the GI50 with BT-549 breast was 1.01 µM; with NCI-H460 lung, 0.376 µM; with PC-3 prostate, 0.405 µM; in the assay with SF-268 CNS it was 1.75 µM; in the assay on SF-295 CNS it was 0.234 µM; in the assay with SK-MEL-2 melanoma, 0.487 µM. Also, the GI50 in the assay with SNB-75 CNS was 0.327 µM; in the assay with T-47D breast, 0.34 µM; in the assay on UACC-257 melanoma it was 13 µM. Moreover, the TGI in the assay on BT-549 breast came out at 19.3 µM; in the assay with NCI-H460 lung it was 14.6 µM; in the assay with PC-3 prostate, 18.1 µM; with SF-268 CNS it was 24.2 µM; with SF-295 CNS, 0.815 µM; with SK-MEL-2 melanoma, 31.1 µM. The results for the TGI in the assay on SNB-75 CNS, in the assay with T-47D breast and in the assay with UACC-257 melanoma were 18.9 µM, 19.7 µM and 42.7 µM, respectively.

Turning to `C/C(N=NC(=S)N1CCCCCC1)=C1\C=CC=CN1O`, the TGI is more than 100 µM in the assay on BT-549 breast; 31.3 µM in the assay on NCI-H460 lung; more than 100 µM in the assay on SF-268 CNS; more than 100 µM with SF-295 CNS; 48.2 µM in the assay with SF-539 CNS; 18.8 µM with SK-MEL-2 melanoma. The TGI was determined as 72.7 µM in the assay with SNB-75 CNS, 77.7 µM with T-47D breast and 10.9 µM in the assay on UACC-257 melanoma.
